Results taken from PubChem BioAssay (NCI).
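GI50 is the concentration that inhibits growth by half. The concentration for full growth arrest is given as TGI.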

How the values were obtained:
Test in all cases: growth of human tumour cells (NCI), 384-well format
OVCAR-5 ovarian = system: OVCAR-5 ovarian
SK-OV-3 ovarian = system: SK-OV-3 ovarian
M14 melanoma = system: M14 melanoma
DU-145 prostate = system: DU-145 prostate
U251 glioblastoma = system: U251 glioblastoma
IGROV1 ovarian = system: IGROV1 ovarian
NCI/ADR-RES ovarian = system: NCI/ADR-RES ovarian
OVCAR-4 ovarian = system: OVCAR-4 ovarian
HCT-116 colon = system: HCT-116 colon
MOLT-4 leukemia = system: MOLT-4 leukemia
MDA-MB-435 melanoma = system: MDA-MB-435 melanoma
NCI-H522 lung = system: NCI-H522 lung
HS 578T breast = system: HS 578T breast

**Q.** `C=CC(=O)N1CCC(CNc2ncnc(N)c2-c2ccc(Oc3ccccc3)cc2)CC1` was tested. Which GI50 (OVCAR-5 ovarian) did it give?
**A.** 38.1 µM

**Q.** And the TGI (OVCAR-5 ovarian)?
**A.** > 100 µM

**Q.** What about the GI50 (SK-OV-3 ovarian) of the same compound?
**A.** 16.2 µM

**Q.** And the TGI (SK-OV-3 ovarian)?
**A.** 44.9 µM

**Q.** And the GI50 (M14 melanoma)?
**A.** 29.6 µM

**Q.** And the TGI (M14 melanoma)?
**A.** 77.4 µM

**Q.** What about the GI50 (DU-145 prostate) of the same compound?
**A.** 19.5 µM

**Q.** And the TGI (DU-145 prostate)?
**A.** 46.4 µM

**Q.** And the GI50 (U251 glioblastoma)?
**A.** 18.6 µM

**Q.** What about the TGI (U251 glioblastoma) of the same compound?
**A.** 40.6 µM

**Q.** And the GI50 (IGROV1 ovarian)?
**A.** 14.6 µM

**Q.** And the TGI (IGROV1 ovarian)?
**A.** 28.3 µM

**Q.** And the GI50 (NCI/ADR-RES ovarian)?
**A.** 15.9 µM

**Q.** And the TGI (NCI/ADR-RES ovarian)?
**A.** 34.5 µM

**Q.** What about the GI50 (OVCAR-4 ovarian) of the same compound?
**A.** 21.2 µM

**Q.** And the TGI (OVCAR-4 ovarian)?
**A.** 69.7 µM

**Q.** What about the GI50 (HCT-116 colon) of the same compound?
**A.** 21.1 µM

**Q.** And the TGI (HCT-116 colon)?
**A.** 48.3 µM

**Q.** And the GI50 (MOLT-4 leukemia)?
**A.** 14.5 µM

**Q.** And the TGI (MOLT-4 leukemia)?
**A.** 27.7 µM

**Q.** And the GI50 (MDA-MB-435 melanoma)?
**A.** 28.7 µM

**Q.** And the TGI (MDA-MB-435 melanoma)?
**A.** > 73.3 µM

**Q.** And the GI50 (NCI-H522 lung)?
**A.** 4.12 µM

**Q.** And the TGI (NCI-H522 lung)?
**A.** 15.7 µM

**Q.** What about the GI50 (HS 578T breast) of the same compound?
**A.** 11.4 µM

**Q.** What about the TGI (HS 578T breast) of the same compound?
**A.** 24.5 µM
